Test results as given in patent publication US20240376080A1, “COMPOUND AS TYK2/JAK1 PSEUDOKINASE DOMAIN INHIBITOR, AND SYNTHESIS AND USE METHODS” (ZHEJIANG WENDA PHARMACEUTICAL TECHNOLOGY CO., LTD., priority 2021, published 2024).

Test system: IFN-α/pSTAT5 in CD3+ cells (human PBMC)
Experiment: Inhibitory effect on expression of pSTAT5 in CD3+ cells using FACS detection (IFN-α stimulated)
Type: cell-based
Details: IFN-α 30 ng/ml
Description: Test Example 1: The Inhibitory Effect of Compounds on the Expression of pSTAT5 in CD3+Cells Using FACS Detection
• DMSO, Sigma, Cat #D2650-100 mL, stored at room temperature. • Perm buffer III, BD Biosciences, Cat #558050, stored at 4° C. • Lyse/Fix buffer, BD Biosciences, Cat #558049, stored at room temperature. • EDTA, Invitrogen, Cat #15575-038, stored at room temperature. • PBS, Hyclone, Cat #SH30256.01, stored at 4° C. • PE Mouse Anti-Human CD3, BD Biosciences, Cat #555333, stored at 4° C. • Mouse anti-human Phosphorylation-STAT5 (pY694) (Alexa Fluor® 647 Conjugate), BD Biosciences, Cat #562076, stored at 4° C. • IFN-α, Biolegend, Cat #592702
1) On the day of experiment, the compound was prepared into a 10 mM solution with DMSO, diluted to 1.5 mM in DMSO, and then diluted to 8 gradient concentrations in 3-fold dilutions.
2) 5 μL of the diluted compound was transferred into 120 ul of DPBS solution containing 0.1% BSA.
3) Positive and negative control groups were set up, with the addition of 0.2% DMSO to the positive and negative control groups.
1) Add 0.5 million and 67.5 uL of human PBMC cells to each well of the 96-well cell culture plate.
2) Add 3.5 uL of diluted compound and mix well.
3) Incubate in a 37° C. incubator for 60 minutes.
4) Dilute IFN-alpha in DPBS containing 0.1% BSA to 600 ng/mL, and dilute PE-anti-hCD3 antibody in DPBS containing 0.1% BSA to 3 fold. After the above incubation for 60-minute, add diluted PE-anti-hCD3 antibody at 5 uL per well and add diluted IFN-α at 4 uL per well, i.e., the final concentration of IFN-α per well was 30 ng/ml.
5) Incubate in a 37° C. incubator for 30 minutes.
6) Transfer all cells to a 96-well deep well plate and add 1 mL of 37° C. preheated lysis/fix buffer.
7) Incubate at 37° C. in dark for 10 minutes.
8) Centrifuge at 600 g for 5 minutes and then discard the supernatant. Wash by adding 1 mL of PBS for twice and centrifuge.
9) Add 1 mL of Perm buffer III to the cell precipitation.
10) Incubate at 4° C. in dark for 30 minutes.
11) Centrifuge at 600 g for 5 minutes and then discard the supernatant. Wash by adding 1 mL of PBS for twice and centrifuge.
12) Dilute APC anti-human pSTAT5 antibody in staining buffer for 200 fold, and add it to cell well at 100 uL per well and mix well.
13) Incubate at room temperature for 40 minutes.
14) Wash twice by adding staining buffer with 1 mL for each well, and centrifuge at 600 g for 5 minutes.
15) Discard the supernatant, and re-suspend the cell precipitation in 300 uL of staining buffer.
16) Sample and analyze in a flow cytometer to obtain the IC50 of the samples to be tested, Table 1.

Row | SMILES | IC50 [nM]
1 | [2H]C([2H])([2H])NC(=O)c1nnc(NC(=O)[C@@H]2CC23CC3)cc1Nc1nccc(-c2ncn(C)n2)c1OC [Compound 2R] | 5.7
2 | [2H]C([2H])([2H])NC(=O)c1nnc(NC(=O)[C@H]2CC23CC3)cc1Nc1nccc(-c2ncn(C)n2)c1OC [Compound 2S] | 3.9
3 | [2H]C([2H])([2H])NC(=O)c1nnc(NC(=O)[C@@H]2CC23CC3)cc1Nc1cccc(-c2ncn(C)n2)c1OC [Compound 1R] | 6.3
4 | [2H]C([2H])([2H])NC(=O)c1cnc(NC(=O)[C@H]2CC23CC3)cc1Nc1cccc(-c2ncn(C)n2)c1OC [Compound 4S] | 4.1
5 | [2H]C([2H])([2H])NC(=O)c1cnc(NC(=O)[C@@H]2CC23CC3)cc1Nc1cccc(-c2ncn(C)n2)c1OC [Compound 4R] | 5.3
6 | [2H]C([2H])([2H])NC(=O)c1nnc(NC(=O)[C@H]2CC23CC3)cc1Nc1cccc(-c2noc(COC)n2)c1OC [Compound 3S] | 22.8
7 | [2H]C([2H])([2H])NC(=O)c1nnc(NC(=O)C2CC23CC3)cc1Nc1nccc(-c2noc(COC)n2)c1OC (centres unmarked) [Compound 5] | 13
8 | [2H]C([2H])([2H])NC(=O)c1nnc(NC(=O)[C@H]2CC23CC3)cc1Nc1cccc(-c2ncn(C)n2)c1OC [Compound 1S] | 4.2

Biological target: TYK2 (JH1) (Homo sapiens (Human), UniProt P29597)
Sequence (P29597 897-1176): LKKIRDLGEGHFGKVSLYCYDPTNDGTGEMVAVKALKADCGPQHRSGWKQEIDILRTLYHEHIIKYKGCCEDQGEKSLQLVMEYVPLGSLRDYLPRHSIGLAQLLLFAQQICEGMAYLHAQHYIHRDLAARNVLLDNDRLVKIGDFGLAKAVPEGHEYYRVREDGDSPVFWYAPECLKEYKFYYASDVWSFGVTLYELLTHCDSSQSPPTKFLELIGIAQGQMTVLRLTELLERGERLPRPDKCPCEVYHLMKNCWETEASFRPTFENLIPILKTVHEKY
Experiment: Kinase (JH1) experiment, TYK2
Type: biochemical
Details: kinase domain
Description: 1.2. Kinase (JH1) Experiment Operation was as Follows:
1.2.1. Dissolve the compound with DMSO to a storage concentration of 10 mM.
1.2.2. Prepare a compound with a concentration of 100 times the final concentration in a compound dilution plate by diluting it from the highest concentration point for a total of 4 concentration points using a 27 times dilution method, and transfer it to the Echo plate.
1.2.3. Use an Echo instrument to pulse the compound from the Echo plate to a 384 experimental plate, thereby obtain the compound with 11 concentration points of the 3-fold dilution matrix.
1.2.4. Configure a 2× kinase working solution and add it to a 384-well experimental plate at 5 uL per well. Incubate the compound and the kinase at room temperature for 15 minutes.
1.2.5. Add 5 ul 2× substrate (containing ATP) to the 384 well plate.
1.2.6. Incubate at room temperature for 45 minutes.
1.2.7. Add the detection reagent mixture to the 384-well plate, centrifuge for 30 seconds, and incubate at room temperature for 60 minutes.
1.2.8. Read the signal values using Envision Microplate Reader (PerkinElmer).
1.3.1. Use XL-Fit software for data analysis to obtain IC50 of the compounds, see Table 2 for results.

Row | SMILES | IC50 [nM]
9 | [2H]C([2H])([2H])NC(=O)c1nnc(NC(=O)[C@@H]2CC23CC3)cc1Nc1nccc(-c2ncn(C)n2)c1OC [Compound 2R] | > 9950
10 | [2H]C([2H])([2H])NC(=O)c1nnc(NC(=O)[C@H]2CC23CC3)cc1Nc1nccc(-c2ncn(C)n2)c1OC [Compound 2S] | > 9950

The next lines start with the values.

Row | IC50 [nM] | SMILES
11 | > 9950 | [2H]C([2H])([2H])NC(=O)c1nnc(NC(=O)[C@@H]2CC23CC3)cc1Nc1cccc(-c2ncn(C)n2)c1OC [Compound 1R]
12 | > 9950 | [2H]C([2H])([2H])NC(=O)c1cnc(NC(=O)[C@H]2CC23CC3)cc1Nc1cccc(-c2ncn(C)n2)c1OC [Compound 4S]
13 | > 9950 | [2H]C([2H])([2H])NC(=O)c1cnc(NC(=O)[C@@H]2CC23CC3)cc1Nc1cccc(-c2ncn(C)n2)c1OC [Compound 4R]
14 | > 9950 | [2H]C([2H])([2H])NC(=O)c1nnc(NC(=O)[C@H]2CC23CC3)cc1Nc1cccc(-c2ncn(C)n2)c1OC [Compound 1S]
